According to patent US20250082589A1, “PHENYLETHYLIDENEHYDRAZINE DIMERS AND METHODS OF USING SAME” (NEURAWELL THERAPEUTICS, priority 2021, published 2025):
Read-outs that look alike come from different tables or passages of the source.

Assays:
[1] = 1H NMR stability of PEH sample 1830-011 over time and in different deuterated solvents; format: physicochemical
Experimental: ^1H NMR was employed to probe the stability of PEH sample 1830-011 both in terms of time after preparation and in different deuterated solvents. […] In Py-d6, about 10% of PEH was transformed to the azine. Additionally, a new sample from the obtained oil in sample 1830-011 in which the oil was prepared after 3 days storage in −20° C. under argon was prepared and measured directly in CDCl3. After 3 days, the contamination of PEH with azine was equal to 18% (the ratio of PEH:Azine was 82:18).

[2] = pH stability studies at pH 9.2 and pH 7.4; format: physicochemical
From the text: Batch 1830-013. Although UPLC confirmed the presence of PEH and the azine (FIG. 6A), no signals due to either species were detected in the NMR in CDCl3 (FIG. 6B).

[3] = LC-MS analysis of first preparative HPLC fraction in solution and after lyophilization; format: physicochemical
Experimental: See also FIG. 22A-C. […] Peak nos. […] Peak nos.
LCMS Method. The LCMS analysis was performed on a Dionex UHPLC Ultimate 3000 with DAD detector/Thermo Scientific ISQ EC-Mass Spectrometer with a wavelength range of 190-350 nm±4 nm. […] The elution scheme shown in Table 12 was used for chromatographic separation. Mobile phase C was 0.05% ammonium hydroxide in water (28.0-30.0% NH3 basis) and Mobile phase D was acetonitrile. The syringe washing solution was 20% MeOH. The MS conditions were a mass range of 100-1000 m/z and scan speed of 12 000 amu/sec.

[4] = PEH stability tests by LCMS (batch 1830-023); format: physicochemical; details: stored at −80° C.
Experimental: See also FIG. 27, which illustrates the results from the stability tests of PEH. […] Compounds were separated on a Kinetix® 2.6 μm XB—C18 (4.6×50 mm), 110A, column no. 00B-4496-EO column using gradient elution with a column temperature of 25° C. at a flow of 1.0 mL/min. The elution scheme shown in Table 15 was used for chromatographic separation. Mobile phase C was 0.05% ammonium hydroxide in water (28.0-30.0% NH3 basis) and Mobile phase D was acetonitrile. The syringe washing solution was 20% MeOH. The MS conditions were a mass range of 100-1000 m/z and scan speed of 12 000 amu/sec.

[5] = PEH 1830-003B, NMR
MAO-A = target: T1, MAO-A (Homo sapiens, UniProt P21397); details: cited from earlier work
T1 sequence (P21397 1-527): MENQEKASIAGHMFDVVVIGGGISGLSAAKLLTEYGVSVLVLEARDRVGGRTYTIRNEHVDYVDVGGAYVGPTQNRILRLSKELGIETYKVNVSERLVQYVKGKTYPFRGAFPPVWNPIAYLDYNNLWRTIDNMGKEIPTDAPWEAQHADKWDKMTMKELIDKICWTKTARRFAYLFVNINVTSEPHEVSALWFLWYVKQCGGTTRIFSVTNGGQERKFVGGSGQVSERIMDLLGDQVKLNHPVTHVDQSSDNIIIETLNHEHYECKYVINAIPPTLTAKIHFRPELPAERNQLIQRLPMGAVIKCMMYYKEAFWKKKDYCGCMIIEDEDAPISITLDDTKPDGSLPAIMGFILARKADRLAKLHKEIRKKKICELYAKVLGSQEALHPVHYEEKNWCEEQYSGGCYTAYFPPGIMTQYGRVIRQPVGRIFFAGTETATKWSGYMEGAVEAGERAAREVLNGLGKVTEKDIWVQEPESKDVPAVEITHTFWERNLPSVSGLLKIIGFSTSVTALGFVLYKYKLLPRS

MAO-B = target: T2, MAO-B (Homo sapiens, UniProt P27338); details: cited from earlier work
T2 sequence (P27338 1-520): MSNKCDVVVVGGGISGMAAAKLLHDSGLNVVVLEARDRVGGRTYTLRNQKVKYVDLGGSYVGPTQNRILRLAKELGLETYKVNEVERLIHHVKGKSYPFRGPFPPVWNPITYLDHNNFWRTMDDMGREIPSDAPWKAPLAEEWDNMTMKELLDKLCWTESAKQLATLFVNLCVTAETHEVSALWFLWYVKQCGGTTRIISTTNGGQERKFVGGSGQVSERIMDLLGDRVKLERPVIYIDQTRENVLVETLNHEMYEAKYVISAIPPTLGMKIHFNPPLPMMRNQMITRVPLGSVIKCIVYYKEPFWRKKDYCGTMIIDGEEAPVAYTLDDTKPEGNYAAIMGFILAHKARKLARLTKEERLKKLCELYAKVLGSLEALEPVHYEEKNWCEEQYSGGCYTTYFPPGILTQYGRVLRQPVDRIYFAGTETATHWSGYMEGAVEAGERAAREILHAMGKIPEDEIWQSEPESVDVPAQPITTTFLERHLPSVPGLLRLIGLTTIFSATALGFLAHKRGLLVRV

[6] = 1H NMR stability of azine sample 1830-012 over time and in different deuterated solvents; format: physicochemical; details: 1830-012 oil after 3 days storage in −20° C. under argon, new sample measured directly in CDCl3
Experimental: ^1H NMR was employed to probe the stability of azine sample 1830-012 both in terms of time after preparation and in different deuterated solvents.
Additionally, a new sample from the oil obtained in sample 1830-012, in which the oil was prepared after 3 days storage in −20° C. under argon, was prepared and measured directly in CDCl3.
After 3 days, the contamination of the azine with PEH was equal to 9% (the ratio of PEH:Azine was 9:91). […] Thus, it is theorized that purification cannot be accomplished by column chromatography. […] First, EtOH (2.0 mL) was added to 300 mg of crude product 1830-012 and heated to reflux. During refluxing, ˜1.0 mL of EtOH evaporated. The mixture was then slowly cooled to room temperature and then cooled to 0° C. After 3 days at 0° C., no precipitate was observed. In a second attempt, cold EtOH (3.0 mL) was added to 600 mg of crude product 1830-012 and the suspension was stirred at 0° C. for 15 minutes. The white precipitate was filtered (m=131 mg) and washed with small amounts of cold EtOH (see FIG. 5).

[7] = LC-MS analysis of azine yellow precipitate (1830-014) after dissolution and storage; format: physicochemical
Experimental: Crystallization was performed on 3.6 g of the crude azine product for 1830-014 using the second method as described above for 1830-012 (FIG. 9). White (m=0.490 g) and yellow (m=1.473 g) precipitates were obtained. LC-MS analysis was also performed on the azine sample obtained as a yellow precipitate (1830-014), with chromatograms obtained directly after dissolution (FIG. 10A) and 27 hours after dissolution (FIG. 10B). The quantitative results are described in Table 12 and Table 13 below. According to the LC-MS analysis using % relative area corresponding to the appropriate MS peaks, the azine sample obtained as a yellow precipitate was 96.24% azine. 27 hours after dissolution, the sample was 91.77% azine. After one month of storage at −20° C. under Argon, the sample was 91.56% azine (data not shown).
LCMS Method. The LCMS analysis was performed on a Dionex UHPLC Ultimate 3000 with DAD detector/Thermo Scientific ISQ EC-Mass Spectrometer with a wavelength range of 190-350 nm±4 nm. Compounds were separated on a Kinetix® 2.6 μm XB—C18 (4.6×50 mm), 110 A, column no. 00B-4496-EO column using gradient elution with a column temperature of 25° C. at a flow of 1.0 mL/min. The elution scheme shown in Table 12 was used for chromatographic separation. Mobile phase C was 0.05% ammonium hydroxide in water (28.0-30.0% NH3 basis) and Mobile phase D was acetonitrile. The syringe washing solution was 20% MeOH. The MS conditions were a mass range of 100-1000 m/z and scan speed of 12 000 amu/sec.

[8] = Stability under acidic or basic UPLC conditions; format: physicochemical
Experimental: Batch 1830-001. […] The purity of the sample was 20%.
The peak at R.T.=1.70 min corresponds to the azine according to mass spectrometry (FIG. 13B, bottom panel), and the azine was present at 69% purity.
UPLC Method. The UPLC analysis was performed on a Waters ACQUITY UPLC I-Class PLUS System with a Waters SQ Detector 2 in the wavelength range of 200-400 nm. Compounds were separated on an Acquity UPLC BEH C18 1.7 μm/130 Å (2.1×100 mm) column using gradient elution with a column temperature of 40° C. at a flow of 0.5 mL/min. The elution scheme shown in Table 11 was used for chromatographic separation. Mobile phase A was 0.05% ammonium hydroxide in water (28.0-30.0% NH3 basis) and Mobile phase B was acetonitrile. The syringe washing solution was 50% ACN, 50% water. The MS conditions were a mass range of […] and scan time of 0.15 s.

[9] = PEH 1830-011, first fraction after preparative HPLC and lyophilization

In the case of NN=CCc1ccccc1 [PEH, phenylethylidenehydrazine], the “contamination of PEH with azine” value ([1]; 1830-011 oil after 3 days storage in −20° C. under argon, new sample measured directly in CDCl3) is reported as 18%, the “PEH transformed to the azine” value ([1]; PEH sample 1830-011 in Py-d6) is reported as “about 10%” and the pH stability ([2]; pH 7.4) is reported as “the azine and the aldehyde are formed”. For the same molecule, the pH stability ([2]; pH 9.2) was “stable at pH=9.2”, the stability during lyophilization [3] was “undergoes decomposition during lyophilization” and the “% PEH by LCMS” value [3, 9] was 12.70%. For the same molecule, the “% azine in PEH sample by LCMS” value [3, 9] was 85.89%, the “% PEH by LCMS” value ([3]; PEH 1830-011, first fraction after preparative HPLC, solution, before lyophilization) was 92.66% and the “% azine in PEH sample by LCMS” value ([3]; PEH 1830-011, first fraction in solution after preparative HPLC) was 4.14%. The “Purity of PEH (summarized isomers), stability test” value (from here on “Purity of PEH (summarized isomers)”) ([4]; Extract (liq) in chloroform, after 1 day) was 97.36, the “Purity of PEH (summarized isomers)” value ([4]; Extract (liq) in chloroform, after 2 days) was 97.86 and the “Purity of PEH (summarized isomers)” value ([4]; Extract (liq) in chloroform, after 3 days) was 97.82. The “Purity of PEH (summarized isomers)” value ([4]; Extract (liq) in chloroform, after 4 days) was 97.65, the “Purity of PEH (summarized isomers)” value ([4]; Extract (liq) in chloroform, after 7 days) was 96.14 and the “Purity of PEH (summarized isomers)” value ([4]; Extract (liq) in chloroform, after reaction) was 98.49. The “Purity of PEH (summarized isomers)” value ([4]; solid (concentrated material), after 1 day) was 68.46, the “Purity of PEH (summarized isomers)” value ([4]; solid (concentrated material), after 2 days) was 69.82 and the “Purity of PEH (summarized isomers)” value ([4]; solid (concentrated material), after 3 days) was 64.26. The “Purity of PEH (summarized isomers)” value ([4]; solid (concentrated material), after 4 days) was 66.89, the “Purity of PEH (summarized isomers)” value ([4]; solid (concentrated material), after 7 days) was 67.38 and the “Purity of PEH (summarized isomers)” value ([4]; solid (concentrated material), after reaction) was 81.17. The “level of azine impurity during drying” value ([5]; after drying for 15 min) was 7%, the “level of azine impurity during drying” value ([5]; after drying for 3 hours) was 22% and the “inhibition of MAO-A” value (MAO-A) was “weak and transient inhibitor”. For the same molecule, the “inhibition of MAO-B” value (MAO-B) was “weak and transient inhibitor”.
With C(/Cc1ccccc1)=N\N=C\Cc1ccccc1 [azine, (1E,2E)-1,2-bis(2-phenylethylidene)hydrazine] the “contamination of the azine with PEH” value [6] was 9%, the pH stability ([2]; pH 7.4) was “undergoes rapid hydrolysis to the aldehyde” and the pH stability ([2]; pH 9.2) was “stable at pH 9.2”. The “% azine by LC-MS relative area” value ([7]; yellow precipitate 1830-014, 27 hours after dissolution) was 91.77%, the “% azine by LC-MS relative area” value ([7]; yellow precipitate 1830-014, after one month of storage at −20° C. under Argon) was 91.56% and the “% azine by LC-MS relative area” value ([7]; yellow precipitate 1830-014, directly after dissolution) was 96.24%. The stability during lyophilization ([3]; after preparative HPLC) was “remained stable after lyophilization”, the “% azine by LC-MS relative area” value ([3]; azine 1830-015, first fraction after lyophilization) was 99.93% and the “% azine by LC-MS relative area” value ([3]; azine 1830-015, first fraction after preparative HPLC, in solution) was 99.61%. The “stability in acidic conditions (UPLC)” value ([8]; acidic conditions) was “not stable in acidic conditions” and the “stability in basic conditions (UPLC)” value ([8]; basic conditions, sample 1830-001) was “stable in basic conditions”.
